Results as given in US20210300936A1, “PYRAZOLOTRIAZOLOPYRIMIDINE DERIVATIVES AS A2A RECEPTOR ANTAGONIST” (BEIGENE, LTD., priority 2018, published 2021).

target: human A2A receptor (A2AR) (Homo sapiens, UniProt P29274); assay: Luciferase reporter assay (HEK293-A2AR-luc2p/CRE/Hygro cells, 3 nM CGS21680); format: cell-based; conditions: 3 nM CGS21680, 5 h incubation
Protocol: HEK293 cells were maintained in Dulbecco's modified Eagle's medium (DMEM, Gibco) supplemented with 10% fetal bovine serum (FBS, Thermo Scientific), 100 units/mL penicillin (Gibco), and 0.1 mg/mL streptomycin (Gibco) in a humidified 37° C. environment with 5% C02. Plasmid encoding wild-type human A2A receptor (A2AR) (in pcDNA3.1) was synthesized by Genscript (Nanjing, China). Transfection of the plasmids was performed in 6-well plates with 4×10^5 cells using Lipofectamin 2000 (ThermoFisher Scientific) according to the instruction of the manufacturer. Cell clones that stably express A2AR were established and maintained in the same complete medium as the HEK293 cells in addition of G-418 (Gibico). Expression level of A2AR in each single cell clone was determined using immunoblotting and FACS method. HEK293-A2AR stable cells were then transfected with pGL4.29[luc2P/CRE/Hygro] (Promega) luciferase reporter plasmid for establishing the HEK293-A2AR-luc2p/CRE/Hygro stable cell line.
HEK293-A2AR-luc2p/CRE/Hygro cells were seeded at a density of 5,000 cells/well in DMEM with 1% FBS and 1 U/mL adenosine deaminase (ADA) (Sigma). After 18 h, the cells were treated with 3 nM CGS21680 plus a series dilution of A2AR antagonist, the compounds disclosed herein at the concentration of 0.1˜10000 nM, prepared in DMEM with 1% FBS. After 5 h incubation, the luciferase activity in cells were measured using the Bright-Glo Luciferase Assay System (Promega) according to manufacturer's instructions. The luminescence signal was measured using a PHERAstar FS plate reader (BMG Labtech). […] Maximal luminescence intensity was determined in the presence of 3 nM CGS21680 and was set as 100%. The IC50 value was calculated from a dose dependent inhibition curve across the range of compound concentrations.

Chain of human A2A receptor (A2AR) (P29274 whole entry): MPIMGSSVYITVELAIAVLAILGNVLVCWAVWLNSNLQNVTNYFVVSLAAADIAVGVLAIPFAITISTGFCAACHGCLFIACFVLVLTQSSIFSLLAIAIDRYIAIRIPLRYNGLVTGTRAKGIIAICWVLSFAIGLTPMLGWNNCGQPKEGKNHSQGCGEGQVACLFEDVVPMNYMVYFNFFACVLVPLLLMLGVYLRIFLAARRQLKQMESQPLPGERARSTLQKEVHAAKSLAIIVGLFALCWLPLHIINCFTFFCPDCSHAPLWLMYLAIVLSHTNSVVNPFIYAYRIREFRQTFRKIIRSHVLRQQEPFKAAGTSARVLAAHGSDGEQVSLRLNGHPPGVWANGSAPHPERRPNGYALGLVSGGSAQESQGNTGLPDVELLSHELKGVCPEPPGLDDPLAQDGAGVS

SMILES	IC50 [nM]
CNCCOc1ccc(N2CCN(C(=O)C(C)n3ncc4c3nc(N)n3nc(-c5ccco5)nc43)CC2)cc1 (stereo not shown) [Compound A30, 2-(5-amino-2-(furan-2-yl)-7H-pyrazolo[4,3-e][1,2,4]triazolo[1,5-c]pyrimidin-7-yl)-1-(4-(4-(2-(methylamino)ethoxy)phenyl)piperazin-1-yl)propan-1-one]	22
CCCCC(C(=O)N1CCN(c2ccc(OCCN(C)C)cc2)CC1)n1ncc2c1nc(N)n1nc(-c3ccco3)nc21 (stereo not shown) [Compound A32, 2-(5-amino-2-(furan-2-yl)-7H-pyrazolo[4,3-e][1,2,4]triazolo[1,5-c]pyrimidin-7-yl)-1-(4-(4-(2-(dimethylamino)ethoxy)phenyl)piperazin-1-yl)hexan-1-one]	7.2
COCCOc1ccc(N2CCN(C(=O)C(c3ccc4ccccc4c3)n3ncc4c3nc(N)n3nc(-c5ccco5)nc43)CC2)cc1 (stereo not shown) [Compound A33, 2-(5-amino-2-(furan-2-yl)-7H-pyrazolo[4,3-e][1,2,4]triazolo[1,5-c]pyrimidin-7-yl)-1-(4-(4-(2-methoxyethoxy)phenyl)piperazin-1-yl)-2-(naphthalen-2-yl)ethan-1-one]	13.3
COCCOc1ccc(N2CCN(C(=O)C(c3ccc(C(F)(F)F)cc3)n3ncc4c3nc(N)n3nc(-c5ccco5)nc43)CC2)cc1 (stereo not shown) [Compound A34, 2-(5-amino-2-(furan-2-yl)-7H-pyrazolo[4,3-e][1,2,4]triazolo[1,5-c]pyrimidin-7-yl)-1-(4-(4-(2-methoxyethoxy)phenyl)piperazin-1-yl)-2-(4-(trifluoromethyl)phenyl)ethan-1-one]	75.7
CCCCC(C(=O)N1CCN(c2ccc(OCCNC)cc2)CC1)n1ncc2c1nc(N)n1nc(-c3ccco3)nc21 (stereo not shown) [Compound A35, 2-(5-amino-2-(furan-2-yl)-7H-pyrazolo[4,3-e][1,2,4]triazolo[1,5-c]pyrimidin-7-yl)-1-(4-(4-(2-(methylamino)ethoxy)phenyl)piperazin-1-yl)hexan-1-one]	5.8
COCCOc1ccc(N2CCN(C(=O)C(c3cccc(C(F)(F)F)c3)n3ncc4c3nc(N)n3nc(-c5ccco5)nc43)CC2)cc1 (stereo not shown) [Compound A36, 2-(5-amino-2-(furan-2-yl)-7H-pyrazolo[4,3-e][1,2,4]triazolo[1,5-c]pyrimidin-7-yl)-1-(4-(4-(2-methoxyethoxy)phenyl)piperazin-1-yl)-2-(3-(trifluoromethyl)phenyl)ethan-1-one]	7.7
CCCC(C(=O)N1CCN(c2ccc(OCCN(C)C)cc2)CC1)n1ncc2c1nc(N)n1nc(-c3ccco3)nc21 (stereo not shown) [Compound A39, 2-(5-amino-2-(furan-2-yl)-7H-pyrazolo[4,3-e][1,2,4]triazolo[1,5-c]pyrimidin-7-yl)-1-(4-(4-(2-(dimethylamino)ethoxy)phenyl)piperazin-1-yl)pentan-1-one]	5.3
COCCOc1ccc(N2CCN(C(=O)C(c3ccc(F)c(F)c3)n3ncc4c3nc(N)n3nc(-c5ccco5)nc43)CC2)cc1 (stereo not shown) [Compound A40, 2-(5-amino-2-(furan-2-yl)-7H-pyrazolo[4,3-e][1,2,4]triazolo[1,5-c]pyrimidin-7-yl)-2-(3,4-difluorophenyl)-1-(4-(4-(2-methoxyethoxy)phenyl)piperazin-1-yl)ethan-1-one]	23.7
COCCOc1ccc(N2CCN(C(=O)C(c3cccc(OC)c3)n3ncc4c3nc(N)n3nc(-c5ccco5)nc43)CC2)cc1 (stereo not shown) [Compound A41, 2-(5-amino-2-(furan-2-yl)-7H-pyrazolo[4,3-e][1,2,4]triazolo[1,5-c]pyrimidin-7-yl)-1-(4-(4-(2-methoxyethoxy)phenyl)piperazin-1-yl)-2-(3-methoxyphenyl)ethan-1-one]	5.8
COCCOc1ccc(N2CCN(C(=O)C(c3cccc(F)c3)n3ncc4c3nc(N)n3nc(-c5ccco5)nc43)CC2)cc1 (stereo not shown) [Compound A42, 2-(5-amino-2-(furan-2-yl)-7H-pyrazolo[4,3-e][1,2,4]triazolo[1,5-c]pyrimidin-7-yl)-2-(3-fluorophenyl)-1-(4-(4-(2-methoxyethoxy)phenyl)piperazin-1-yl)ethan-1-one]	5.1
CCCC(C(=O)N1CCN(c2ccc(F)cc2)CC1)n1ncc2c1nc(N)n1nc(-c3ccco3)nc21 (stereo not shown) [Compound A45, 2-(5-amino-2-(furan-2-yl)-7H-pyrazolo[4,3-e][1,2,4]triazolo[1,5-c]pyrimidin-7-yl)-1-(4-(4-fluorophenyl)piperazin-1-yl)pentan-1-one]	6

Compounds with a lower IC50, results first:

IC50 [nM]	SMILES
4.8	CCCC(C(=O)N1CCN(c2ccc(OCCOC)c(F)c2F)CC1)n1ncc2c1nc(N)n1nc(-c3ccco3)nc21 (stereo not shown) [Compound A51, 2-(5-amino-2-(furan-2-yl)-7H-pyrazolo[4,3-e][1,2,4]triazolo[1,5-c]pyrimidin-7-yl)-1-(4-(2,3-difluoro-4-(2-methoxyethoxy)phenyl)piperazin-1-yl)pentan-1-one]
3.2	Nc1nc2c(cnn2C(C(=O)N2CCN(c3ccc(F)cc3)CC2)c2ccccc2)c2nc(-c3ccco3)nn12 (stereo not shown) [Compound A49, 2-(5-amino-2-(furan-2-yl)-7H-pyrazolo[4,3-e][1,2,4]triazolo[1,5-c]pyrimidin-7-yl)-1-(4-(4-fluorophenyl)piperazin-1-yl)-2-phenylethan-1-one]
2.9	COCCOc1ccc(N2CCN(C(=O)C(c3ccccc3)n3ncc4c3nc(N)n3nc(-c5ccco5)nc43)C[C@@H]2C)cc1 (stereo partly drawn) [Compound A46, 2-(5-amino-2-(furan-2-yl)-7H-pyrazolo[4,3-e][1,2,4]triazolo[1,5-c]pyrimidin-7-yl)-1-((S)-4-(4-(2-methoxyethoxy)phenyl)-3-methylpiperazin-1-yl)-2-phenylethan-1-one]
2.8	COCCOc1ccc(N2CCN(C(=O)C(c3ccccc3)n3ncc4c3nc(N)n3nc(-c5ccco5)nc43)C[C@H]2C)cc1 (stereo partly drawn) [Compound A47, 2-(5-amino-2-(furan-2-yl)-7H-pyrazolo[4,3-e][1,2,4]triazolo[1,5-c]pyrimidin-7-yl)-1-((R)-4-(4-(2-methoxyethoxy)phenyl)-3-methylpiperazin-1-yl)-2-phenylethan-1-one]
2.5	CN(C)CCOc1ccc(N2CCN(C(=O)C(c3ccccc3)n3ncc4c3nc(N)n3nc(-c5ccco5)nc43)CC2)cc1 (stereo not shown) [Compound A37, 2-(5-amino-2-(furan-2-yl)-7H-pyrazolo[4,3-e][1,2,4]triazolo[1,5-c]pyrimidin-7-yl)-1-(4-(4-(2-(dimethylamino)ethoxy)phenyl)piperazin-1-yl)-2-phenylethan-1-one]
2	COCCOc1ccc(N2CCN(C(=O)C(c3ccccc3)n3ncc4c3nc(N)n3nc(-c5ccco5)nc43)CC2)c(F)c1 (stereo not shown) [Compound A44, 2-(5-amino-2-(furan-2-yl)-7H-pyrazolo[4,3-e][1,2,4]triazolo[1,5-c]pyrimidin-7-yl)-1-(4-(2-fluoro-4-(2-methoxyethoxy)phenyl)piperazin-1-yl)-2-phenylethan-1-one]
1.6	Nc1nc2c(cnn2C(C(=O)N2CCN(c3ccc(F)cc3F)CC2)c2ccccc2)c2nc(-c3ccco3)nn12 (stereo not shown) [Compound A48, 2-(5-amino-2-(furan-2-yl)-7H-pyrazolo[4,3-e][1,2,4]triazolo[1,5-c]pyrimidin-7-yl)-1-(4-(2,4-difluorophenyl)piperazin-1-yl)-2-phenylethan-1-one]
1.5	COCCOc1ccc(N2CCN(C(=O)C(c3ccccc3)n3ncc4c3nc(N)n3nc(-c5ccco5)nc43)[C@H](C)C2)cc1 (stereo partly drawn) [Compound A50, 2-(5-amino-2-(furan-2-yl)-7H-pyrazolo[4,3-e][1,2,4]triazolo[1,5-c]pyrimidin-7-yl)-1-((R)-4-(4-(2-methoxyethoxy)phenyl)-2-methylpiperazin-1-yl)-2-phenylethan-1-one]
0.9	COCCOc1ccc(N2CCN(C(=O)C(c3ccccc3F)n3ncc4c3nc(N)n3nc(-c5ccco5)nc43)CC2)cc1 (stereo not shown) [Compound A43, 2-(5-amino-2-(furan-2-yl)-7H-pyrazolo[4,3-e][1,2,4]triazolo[1,5-c]pyrimidin-7-yl)-2-(2-fluorophenyl)-1-(4-(4-(2-methoxyethoxy)phenyl)piperazin-1-yl)ethan-1-one]
0.6	COCCOc1ccc(N2CCN(C(=O)C(c3ccccc3OC)n3ncc4c3nc(N)n3nc(-c5ccco5)nc43)CC2)cc1 (stereo not shown) [Compound A31, 2-(5-amino-2-(furan-2-yl)-7H-pyrazolo[4,3-e][1,2,4]triazolo[1,5-c]pyrimidin-7-yl)-1-(4-(4-(2-methoxyethoxy)phenyl)piperazin-1-yl)-2-(2-methoxyphenyl)ethan-1-one]
0.6	COCCOc1ccc(N2CCN(C(=O)C(c3ccccc3C(F)(F)F)n3ncc4c3nc(N)n3nc(-c5ccco5)nc43)CC2)cc1 (stereo not shown) [Compound A38, 2-(5-amino-2-(furan-2-yl)-7H-pyrazolo[4,3-e][1,2,4]triazolo[1,5-c]pyrimidin-7-yl)-1-(4-(4-(2-methoxyethoxy)phenyl)piperazin-1-yl)-2-(2-(trifluoromethyl)phenyl)ethan-1-one]
